Reference: paper PMC2929646 (Nutrition research (New York, N.Y.), 2010)
Where two headings read alike, the source gives them in different places. One block for each compound: values may come before it.

Tests used:
[1] = Stability in cell-free experimental media; format: physicochemical; conditions: cell-free media (pH 5 PBS), 37°C, media 5 (EGCG), media 2 (dimers), mean ± SEM, n=4
[2] = cited from earlier work
[3] = system: Caco-2 human intestinal cells; assay: Parallel accumulation and retention experiment in Caco-2 monolayers; format: in vitro ADME; conditions: after 3 h accumulation, 1 h in catechin/dimer-free PBS; mean ± SEM, n=4
[4] = cited from earlier work; remark: listed apart in the source
Caco-2 cells [5] = conditions: cited from earlier work
[6] = system: Caco-2 human intestinal cells (TC7 clone); assay: Accumulation of catechin monomers and auto-oxidation dimers by Caco-2 monolayers
lipase = conditions: cited from earlier work
U937 cells = conditions: cited from earlier work
rat squalene epoxidase = conditions: relative to EGCG; cited from earlier work
[7] = system: human histolytic lymphoma U937 cells; conditions: cited from earlier work
Caco-2 monolayers [8] = conditions: cited from earlier work
[9] = system: fibrosarcoma HT1080 cells; conditions: cited from earlier work
Caco-2 monolayers [10] = conditions: cited from earlier work; remark: listed apart in the source
Caco-2 cells [11] = conditions: media containing 50 µM ECG; cited from earlier work

- Stability over 3 h (percent of initial concentration) [1]: 100 ± 0.36%
- 1 h Retention, Absolute [3]: 7.08 ± 2.2 pmol/well
Compound: theasinensins (THSNs) A/D [THSNs A/D]
- O2^•− scavenging activity compared with EGCG [2]: equal to or greater than EGCG
- Fe^2+ chelation activity compared with EGCG [4]: equal to or greater than EGCG

- Stability over 3 h (percent of initial concentration) [1]: 91.8 ± 6.4%
- net accumulation at 3 h (amount per mg protein) ([6]; 37°C, pH 5 PBS, media from EGCG + EGC (media 3, 6)): 1.89 ± 0.15 nmol/mg
- Three h accumulation (range over monomer media) ([6]; 3 h, range over the media that contain the monomer): 1.24–1.35%
Compound: O=C(O[C@@H]1Cc2c(O)cc(O)cc2O[C@@H]1c1cc(O)c(O)c(O)c1)c1cc(O)c(O)c(O)c1 [EGCG, (−)-epigallocatechin gallate]
- 3 h accumulation (Caco-2 cells [5]; previously reported by the authors): 0.2–2.5 nmol/mg protein

Compound: Oc1cc(O)c2c(c1)O[C@H](c1cc(O)c(O)c(O)c1)[C@H](O)C2 [EGC, (−)-epigallocatechin]
- 3 h accumulation (Caco-2 cells [5]): 0.1–0.5 nmol/mg protein

Compound: O=C(O[C@@H]1Cc2c(O)cc(O)cc2O[C@@H]1c1cc(O)c(O)c(O)c1-c1c([C@H]2Oc3cc(O)cc(O)c3C[C@H]2OC(=O)c2cc(O)c(O)c(O)c2)cc(O)c(O)c1O)c1cc(O)c(O)c(O)c1 [THSN A]
- inhibition of lipase compared with EGCG (lipase): more effective inhibitor of lipase than EGCG
- inhibition of growth compared with EGCG (U937 cells): more effective at inhibiting the growth of U937 cells than EGCG
- IC50 value, fold lower than EGCG (rat squalene epoxidase): 5 ×
- induction of apoptosis [7]: induced apoptosis

Compound: Oc1cc(O)c2c(c1)O[C@H](c1ccc(O)c(O)c1)[C@@H](O)[C@@H]2c1c(O)cc(O)c2c1O[C@H](c1ccc(O)c(O)c1)[C@@H](O)C2 [procyanidin dimer B3, (+)-C-(4α→8)-(+)-C]
- apparent apical → basolateral permeability (Caco-2 monolayers [8]): 2 ×10⁻⁶ cm/s

Compound: O=C(O[C@@H]1Cc2c(O)cc(O)cc2O[C@@H]1c1cc(O)c(O)c(O)c1-c1c([C@H]2Oc3cc(O)cc(O)c3C[C@H]2OC(=O)c2cc(O)c(O)c(O)c2)cc(O)c(O)c1O)c1cc(O)c(O)c(O)c1 [THSN D]
- inhibition of invasive activity compared with EC, EGC and EGCG [9]: better inhibitor of the invasive activity of fibrosarcoma HT1080 cells than EC and EGC, but was less effective than EGCG
- induction of apoptosis compared with EGCG [7]: more effective than EGCG

Compound: Oc1cc(O)c2c(c1)O[C@H](c1ccc(O)c(O)c1)[C@@H](O)C2 [(+)-C, (+)-catechin]
- apparent apical → basolateral permeability (Caco-2 monolayers [8]): 0.8 ×10⁻⁶ cm/s
- membrane adsorption (Caco-2 monolayers [10]): 0.15–0.2 % transmembrane resistance, Ω cm^2

Compound: O=C(O[C@@H]1Cc2c(O)cc(O)cc2O[C@@H]1c1ccc(O)c(O)c1)c1cc(O)c(O)c(O)c1 [ECG, (−)-epicatechin gallate]
- 1 h accumulation (Caco-2 cells [11]): roughly 3 nmol/mg protein
